Test results reported in patent US20040186081A1, “Naaladase inhibitors for treating opioid tolerance” (Guilford Pharmaceuticals Inc., priority 2003, published 2004).

Biological target: NAALADase (Homo sapiens, UniProt Q04609)
Experiment: In vitro inhibition of NAALADase activity
Type: biochemical
Conditions: not given

Chain of NAALADase (Q04609 whole entry): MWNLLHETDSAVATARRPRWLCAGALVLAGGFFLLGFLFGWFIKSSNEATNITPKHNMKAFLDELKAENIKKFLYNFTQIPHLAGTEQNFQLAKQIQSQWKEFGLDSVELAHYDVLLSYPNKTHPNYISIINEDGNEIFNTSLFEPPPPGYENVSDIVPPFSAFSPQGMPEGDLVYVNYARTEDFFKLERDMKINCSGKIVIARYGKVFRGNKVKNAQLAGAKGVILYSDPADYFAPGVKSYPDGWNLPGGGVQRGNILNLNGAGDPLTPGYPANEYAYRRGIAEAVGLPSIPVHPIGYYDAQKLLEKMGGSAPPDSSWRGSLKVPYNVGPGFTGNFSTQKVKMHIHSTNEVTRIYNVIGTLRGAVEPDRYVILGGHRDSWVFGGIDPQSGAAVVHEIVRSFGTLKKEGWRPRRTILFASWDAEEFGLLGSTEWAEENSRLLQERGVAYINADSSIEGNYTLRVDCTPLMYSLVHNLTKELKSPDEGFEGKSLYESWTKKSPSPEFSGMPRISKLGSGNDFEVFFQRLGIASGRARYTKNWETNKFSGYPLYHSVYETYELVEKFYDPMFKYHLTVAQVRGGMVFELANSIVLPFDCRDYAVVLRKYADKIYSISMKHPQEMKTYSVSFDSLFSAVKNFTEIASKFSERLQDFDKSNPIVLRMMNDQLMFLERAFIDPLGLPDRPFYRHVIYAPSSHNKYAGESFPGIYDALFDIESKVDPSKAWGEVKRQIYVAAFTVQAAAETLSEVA

| Ki [nM] | Compound |
| --- | --- |
| 3100 | O=C(O)c1cc(CP(=O)(O)O)cc(C(=O)O)c1 [5-phosphonomethyl-1,3-benzenedicarboxylic acid] |
| 6500 | O=C(O)c1cc(CS)cc(C(=O)O)c1 [5-mercaptomethyl-1,3-benzenedicarboxylic acid] |
| 12000 | O=C(Cc1cc(C(=O)O)cc(C(=O)O)c1)NO [5-[2-(hydroxyamino)-2-oxoethyl]-1,3-benzenedicarboxylic acid] |
| 1170 | O=C(O)c1ccc(C(=O)c2ccc(Oc3ccc(C(=O)O)c(C(=O)O)c3)cc2)c(C(=O)O)c1 [4-[4-(2,4-dicarboxybenzoyl)phenoxy]-1,2-benzenedicarboxylic acid] |
| 1000 | O=C(O)c1cc(C(=O)O)cc(C(=O)NO)c1 [5-[(hydroxyamino)-carbonyl]-1,3-benzenedicarboxylic acid] |

Same assay, conditions: IC50

| IC50 [nM] | Compound |
| --- | --- |
| ≥ 100000 | O=C(NO)c1ccccc1O [2,N-Dihydroxy-benzamide] |

Same assay, conditions: read-out: IC50

| Compound | IC50 [nM] |
| --- | --- |
| COC(=O)c1cccc(-c2cccc(OCC(=O)NO)c2C(=O)OC)c1 [3-Hydroxycarbamoylmethoxy-biphenyl-2,3′-dicarboxylic acid dimethyl ester] | ≥ 100000 |
| CC(C)(C)c1cc(COc2cccc(CCS)c2C(=O)O)cc(C(=O)O)c1 [2-[[3-carboxy-5-(1,1-dimethylethyl)phenyl]methoxy]-6-(2-mercaptoethyl)-benzoic acid] | 23.7 |
| COC(=O)c1cc(CC(C(=O)O)C(=O)NO)cc(C(C)(C)C)c1 (centres unmarked) [3-tert-Butyl-5-(2-carboxy-2-hydroxycarbamoyl-ethyl)-benzoic acid methyl ester] | 38600 |
| O=C(O)c1ccc(COc2ccc(CCS)c(C(=O)O)c2)cc1 [5-[(4-carboxyphenyl)methoxy]-2-(2-mercaptoethyl)-benzoic acid] | 71.5 |
| O=C(O)c1ccc(COc2cccc(CCS)c2C(=O)O)c(Br)c1 [2-[(2-bromo-4-carboxyphenyl)methoxy]-6-(2-mercaptoethyl)-benzoic acid] | 2.65 |
| O=C(NO)c1cc(OCC(F)(F)F)ccc1OCC(F)(F)F [N-Hydroxy-2,5-bis-(2,2,2-trifluoro-ethoxy)-benzamide] | ≥ 100000 |
| Cc1ccc(C(=O)c2ccccc2C(=O)NO)cc1 [N-Hydroxy-2-(4-methyl-benzoyl)-benzamide] | ≥ 100000 |
| O=C(COc1cccc(C(=O)O)c1)NO [3-Hydroxycarbamoylmethoxy-benzoic acid] | 40800 |
| O=C(CCOc1cccc(-c2cccc(C(=O)O)c2)c1C(=O)O)NO [3-(2-1-Hydroxycarbamoyl-ethoxy)-biphenyl-2,3′-dicarboxylic acid] | 14900 |
| COc1ccc(C(=O)O)cc1OC(CCCS)C(=O)O (centres unmarked) [3-(1-carboxy-4-mercaptobutoxy)-4-methoxy-benzoic acid] | 287 |
| O=C(NO)c1ccc(OCc2ccccc2)c(C(=O)O)c1 [6-Benzyloxy-N-hydroxy-isophthalamic acid] | ≥ 100000 |
| O=C(O)c1ccc(OC(CCCS)C(=O)O)cc1 (centres unmarked) [4-(1-carboxy-4-mercaptobutoxy)-benzoic acid] | 192 |
| O=C(O)c1ccc(CNC(=O)c2cc(C(=O)O)cc(C(=O)NO)c2)cc1 | 2780 |
| O=C(O)c1ccc(COc2cccc(CCS)c2C(=O)O)cc1 [2-[(4-carboxyphenyl)methoxy]-6-(2-mercaptoethyl)-benzoic acid] | 4 |
| O=C(CCCOc1cccc(-c2cccc(C(=O)O)c2)c1C(=O)O)NO [3-(3-Hydroxycarbamoyl-propoxy)-biphenyl-2,3′-dicarboxylic acid] | 9100 |
| CC(C)(C)c1cc(CC(C(=O)O)C(=O)NO)cc(C(=O)O)c1 (centres unmarked) [3-tert-Butyl-5-(2-carboxy-2-hydroxycarbamoyl-ethyl)-benzoic acid] | 11900 |
| O=C(NO)c1ccc(C(=O)c2ccccc2C(=O)NO)cc1 | ≥ 100000 |
| O=C(O)CCC(CCCSCC(=O)NO)C(=O)O (centres unmarked) [2-(3-Hydroxycarbamoyl-methylsulfanylpropyl)-pentanedioic acid] | 3000 |
| COC(=O)c1ccccc1OCC(=O)NO [2-Hydroxycarbamoylmethoxy-benzoic acid methyl ester] | ≥ 100000 |
| CCOC(=O)c1cc(C(=O)O)cc(C(=O)NO)c1 [5-Hydroxycarbamoyl-isophthalic acid monoethyl ester] | 29000 |
| O=C(O)c1ccc(-c2cccc(CCS)c2C(=O)O)cc1 [3-(2-mercaptoethyl)-[1,1′-biphenyl]-2,4′-dicarboxylic acid] | 4.28 |
| COc1cc(C(=O)O)ccc1COc1cccc(CCS)c1C(=O)O [2-[(4-carboxy-2-methoxyphenyl)methoxy]-6-(2-mercaptoethyl)-benzoic acid] | 7 |
| CC(C)(C)c1cc(CC(CC(=O)NO)C(=O)O)cc(C(=O)O)c1 (centres unmarked) [3-tert-Butyl-5-(2-carboxy-3-hydroxycarbamoyl-propyl)-benzoic acid] | 296 |

Other lines, results leading:

| IC50 [nM] | Compound |
| --- | --- |
| ≥ 100000 | O=C(O)c1ccccc1CS [2-(mercaptomethyl)-benzoic acid] |
| 23500 | O=C(CSCCCC(Cc1cccc(-c2cccc(C(=O)O)c2)c1)C(=O)O)NO (centres unmarked) [3′-(2-Carboxy-5-hydroxycarbamoylmethylsulfanyl-pentyl)-biphenyl-3-carboxylic acid] |
| 47.8 | O=C(CCC(Cc1cccc(C(=O)O)c1)C(=O)O)NO (centres unmarked) [3-(2-Carboxy-4-hydroxycarbamoyl-butyl)-benzoic acid] |
| 6050 | O=C(CCCSCC(Cc1cccc(C(=O)O)c1)C(=O)O)NO (centres unmarked) [3-[2-Carboxy-3-(3-hydroxycarbamoyl-propylsulfanyl)-propyl]-benzoic acid] |
| 16100 | COc1cc(OC)cc(OC(CCCS)C(=O)O)c1 (centres unmarked) [2-(3,5-dimethoxyphenoxy)-5-mercapto-pentanoic acid] |
| 2200 | CC(=O)Nc1ccc(CC(CCCS)C(=O)O)cc1 (stereo not drawn) [4-(acetylamino)-alpha-(3-mercaptopropyl)-benzenepropanoic acid] |
| 555 | O=C(O)C(CCCS)Oc1ccccc1 (centres unmarked) [5-mercapto-2-phenoxy-pentanoic acid] |
| 3330 | O=C(CSCCCCC(Cc1cccc(C(=O)O)c1)C(=O)O)NO (centres unmarked) [3-(2-Carboxy-6-hydroxycarbamoylmethyl-sulfanylhexyl)-benzoic acid] |
| 7 | O=C(O)c1cccc(CC(CCCS)C(=O)O)c1 (single isomer, unassigned; (+)) [(+)-3-carboxy-alpha-(3-mercaptopropyl)-benzenepropanoic acid] |
| 14900 | CN(O)C(=O)CSCCCC(Cc1cccc(C(=O)O)c1)C(=O)O (centres unmarked) [3-{2-Carboxy-5-[(hydroxy-methyl-carbamoyl)-methylsulfanyl]-pentyl}-benzoic acid] |
| ≥ 100000 | O=C(COc1ccccc1C(=O)O)NO [2-Hydroxycarbamoylmethoxy-benzoic acid] |
| 2270 | O=C(O)C(CCCS)Cc1ccccc1 (stereo not drawn) [alpha-(3-mercaptopropyl)-benzenepropanoic acid] |
| 184 | O=C(O)c1ccccc1-c1cccc(CC(CCCS)C(=O)O)c1 (centres unmarked) [3′-(2-carboxy-5-mercaptopentyl)-[1,1′-biphenyl]-2-carboxylic acid] |
| 8.25 | O=C(O)c1ccc([N+](=O)[O-])c(CC(CCCS)C(=O)O)c1 (stereo not drawn) [5-carboxy-alpha-(3-mercaptopropyl)-2-nitro-benzenepropanoic acid] |
| 3290 | CCC(SCCCC(Cc1cccc(C(=O)O)c1)C(=O)O)C(=O)NO (centres unmarked) [3-[2-Carboxy-5-(1-hydroxycarbamoyl-propylsulfanyl)-pentyl]-benzoic acid] |
| 1350 | O=C(O)C(CCCS)Cc1ccccc1Cl (stereo not drawn) [2-chloro-alpha-(3-mercaptopropyl)-benzenepropanoic acid] |
| 380 | O=C(O)c1cc(OCc2ccccc2)ccc1CCS [2-(2-mercaptoethyl)-5-(phenylmethoxy)-benzoic acid] |

| IC50 [nM] | Compound |
| --- | --- |
| 215 | O=C(O)COc1cccc(CCS)c1C(=O)O [2-(carboxymethoxy)-6-(2-mercaptoethyl)-benzoic acid] |
| 49 | O=C(O)c1ccccc1Oc1cccc(CC(CCCS)C(=O)O)c1 (stereo not drawn) [3-(2-carboxyphenoxy)-alpha-(3-mercaptopropyl)-benzenepropanoic acid] |
| 2140 | O=C(O)C(CCCS)Cc1ccc(O)cc1 (stereo not drawn) [4-hydroxy-alpha-(3-mercaptopropyl)-benzenepropanoic acid] |
| 613 | O=C(O)c1ccccc1CCS [2-(2-mercaptoethyl)-benzoic acid] |
| 27700 | CC(=O)Nc1cccc(OC(CCCS)C(=O)O)c1 (centres unmarked) [2-[3-(acetylamino)phenoxy]-5-mercapto-pentanoic acid] |
| 1200 | O=C(O)c1cccc(CC(CCCS)C(=O)O)c1Cl (stereo not drawn) [3-carboxy-2-chloro-alpha-(3-mercaptopropyl)-benzenepropanoic acid] |
| 394 | O=C(CSCCCC(Cc1cccc(C(=O)O)c1)C(=O)O)NO (centres unmarked) [3-(2-Carboxy-5-hydroxycarbamoylmethyl-sulfanyl-pentyl)-benzoic acid] |
| 846 | O=C(O)C(CCCS)Oc1cccc(O)c1 (centres unmarked) [2-(3-hydroxyphenoxy)-5-mercapto-pentanoic acid] |
| 24 | O=C(O)c1cccc(SC(CCCS)C(=O)O)c1 (centres unmarked) [3-[1-carboxy-4-mercaptobutyl)thio]-benzoic acid] |
| 19 | O=C(O)c1ccc(-c2ccccc2)c(CC(CCCS)C(=O)O)c1 (centres unmarked) [2-(2-carboxy-5-mercaptopentyl)-[1,1′-biphenyl]-4-carboxylic acid] |
| 70 | O=C(O)c1cccc(CC(CCCS)C(=O)O)c1-c1ccccc1 (centres unmarked) [6-(2-carboxy-5-mercaptopentyl)-[1,1′-biphenyl]-2-carboxylic acid] |
| 3 | O=C(O)c1cc(CC(CCCS)C(=O)O)cc([N+](=O)[O-])c1 (stereo not drawn) [3-carboxy-alpha-(3-mercaptopropyl)-5-nitro-benzenepropanoic acid] |
| 4210 | O=C(CSCCCC(Cc1cccc(-c2ccccc2)c1)C(=O)O)NO (centres unmarked) [2-Biphenyl-3-ylmethyl-5-hydroxy-carbamoylmethylsulfanyl-pentanoic acid] |
| 1000 | O=C(O)C(CCCS)Cc1c(F)c(F)c(F)c(F)c1F (stereo not drawn) [2,3,4,5,6-pentafluoro-alpha-(3-mercaptopropyl)-benzenepropanoic acid] |
| 26 | COc1ccc(C(=O)O)cc1CC(CCCS)C(=O)O (stereo not drawn) [5-carboxy-alpha-(3-mercaptopropyl)-2-methoxy-benzenepropanoic acid] |
| 11.5 | O=C(O)c1ccccc1COc1cccc(CCS)c1C(=O)O [2-[(2-carboxyphenyl)methoxy]-6-(2-mercaptoethyl)-benzoic acid] |
